Measurements published in the supplement of paper PMC5662764.
± gives the standard deviation of the averaged measurements.

Experiments:
Experiment in all cases: normalised growth rate inhibition (GR value) relative to DMSO control (GR (1 = untreated growth, 0 = cytostasis, <0 = cytotoxic)); higher = less growth inhibition
Conditions in all cases: 72 h
HS578T = tested on: HS578T
Procedure: (§1)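 Breast cancer cell lines (BT-20, Hs 578T, MCF 10A, MCF7, MDA-MB-231, SK-BR-3) were plated in 384-well plates and treated 24 h later with drugs at six concentrations (0.04-10 µM). Viable cells were counted by Hoechst/dead-cell-stain imaging at 0 and 72 h. Counts were normalised to DMSO controls on the same plate to give the relative cell count and the growth-rate inhibition (GR) value; technical plate triplicates were averaged for each biological replicate.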

SKBR3 = tested on: SKBR3
Procedure: as §1

MCF7 = tested on: MCF7
Procedure: as §1

MCF10A = tested on: MCF10A
Procedure: as §1

BT20 = tested on: BT20
Procedure: as §1

MDAMB231 = tested on: MDAMB231
Procedure: as §1

| SMILES | normalised growth rate inhibition (HS578T; 0.04 µM) | normalised growth rate inhibition (HS578T; 0.12 µM) | normalised growth rate inhibition (HS578T; 0.37 µM) | normalised growth rate inhibition (HS578T; 1.11 µM) | normalised growth rate inhibition (HS578T; 3.33 µM) | normalised growth rate inhibition (HS578T; 10 µM) | normalised growth rate inhibition (SKBR3; 0.04 µM) | normalised growth rate inhibition (SKBR3; 0.12 µM) | normalised growth rate inhibition (SKBR3; 0.37 µM) | normalised growth rate inhibition (SKBR3; 1.11 µM) | normalised growth rate inhibition (SKBR3; 3.33 µM) | normalised growth rate inhibition (SKBR3; 10 µM) | normalised growth rate inhibition (MCF7; 0.04 µM) | normalised growth rate inhibition (MCF7; 0.12 µM) | normalised growth rate inhibition (MCF7; 0.37 µM) | normalised growth rate inhibition (MCF7; 1.11 µM) | normalised growth rate inhibition (MCF7; 3.33 µM) | normalised growth rate inhibition (MCF7; 10 µM) | normalised growth rate inhibition (MCF10A; 0.04 µM) | normalised growth rate inhibition (MCF10A; 0.12 µM) | normalised growth rate inhibition (MCF10A; 0.37 µM) | normalised growth rate inhibition (MCF10A; 1.11 µM) | normalised growth rate inhibition (MCF10A; 3.33 µM) | normalised growth rate inhibition (MCF10A; 10 µM) | normalised growth rate inhibition (BT20; 0.04 µM) | normalised growth rate inhibition (BT20; 0.12 µM) | normalised growth rate inhibition (BT20; 0.37 µM) | normalised growth rate inhibition (BT20; 1.11 µM) | normalised growth rate inhibition (BT20; 3.33 µM) | normalised growth rate inhibition (BT20; 10 µM) | normalised growth rate inhibition (MDAMB231; 0.04 µM) | normalised growth rate inhibition (MDAMB231; 0.12 µM) | normalised growth rate inhibition (MDAMB231; 0.37 µM) | normalised growth rate inhibition (MDAMB231; 1.11 µM) | normalised growth rate inhibition (MDAMB231; 3.33 µM) | normalised growth rate inhibition (MDAMB231; 10 µM) |
| --- | --- | --- | --- | --- | --- | --- | --- | --- | --- | --- | --- | --- | --- | --- | --- | --- | --- | --- | --- | --- | --- | --- | --- | --- | --- | --- | --- | --- | --- | --- | --- | --- | --- | --- | --- | --- |
| Cc1nc(NC(=O)N2CCC[C@H]2C(N)=O)sc1-c1ccnc(C(C)(C)C(F)(F)F)c1 | 0.971 ± 0.012 | 0.9151 ± 0.001 | 0.871 ± 0.026 | 0.838 ± 0.026 | 0.762 ± 0.011 | 0.561 ± 0.051 | 0.896 ± 0.061 | 0.811 ± 0.059 | 0.679 ± 0.051 | 0.553 ± 0.039 | 0.323 ± 0.11 | -0.0922 ± 0.15 | 0.871 ± 0.11 | 0.701 ± 0.1 | 0.508 ± 0.14 | 0.365 ± 0.11 | 0.204 ± 0.099 | -0.0344 ± 0.057 | 0.976 ± 0.022 | 0.94 ± 0.041 | 0.896 ± 0.061 | 0.865 ± 0.064 | 0.77 ± 0.11 | 0.439 ± 0.14 | 1.04 ± 0.017 | 0.979 ± 0.048 | 0.722 ± 0.027 | 0.553 ± 0.12 | 0.123 ± 0.047 | -0.157 ± 0.072 | 0.997 ± 0.058 | 0.986 ± 0.038 | 0.963 ± 0.048 | 0.935 ± 0.032 | 0.89 ± 0.015 | 0.65 ± 0.09 |
| Cn1cc(-c2[nH]c3cc(NC(=O)[C@H](N)C4CCCCC4)cc4c3c2C=NNC4=O)cn1 | 0.956 ± 0.018 | 0.601 ± 0.064 | 0.107 ± 0.12 | -0.0219 ± 0.17 | -0.0376 ± 0.14 | -0.103 ± 0.15 | -0.00482 ± 0.19 | -0.09 ± 0.2 | -0.136 ± 0.17 | -0.151 ± 0.18 | -0.174 ± 0.14 | -0.183 ± 0.2 | 0.579 ± 0.056 | 0.411 ± 0.041 | 0.335 ± 0.04 | 0.235 ± 0.032 | 0.178 ± 0.018 | 0.0527 ± 0.038 | 0.9601 ± 0.0087 | 0.914 ± 0.022 | 0.83 ± 0.037 | 0.63 ± 0.071 | 0.267 ± 0.17 | -0.0312 ± 0.061 | 0.886 ± 0.045 | 0.96 ± 0.035 | 0.9538 ± 0.0067 | 0.931 ± 0.027 | 0.8 ± 0.063 | 0.129 ± 0.15 | 0.903 ± 0.039 | 0.913 ± 0.087 | 0.747 ± 0.14 | 0.535 ± 0.21 | 0.297 ± 0.22 | -0.0135 ± 0.14 |
| N#CC(c1ccnc(NCCc2cccnc2)n1)c1nc2ccccc2s1 (stereo not drawn) | 0.988 ± 0.016 | 1.01 ± 0.022 | 1.023 ± 0.0087 | 1.025 ± 0.0078 | 1.03 ± 0.023 | 0.932 ± 0.06 | 0.669 ± 0.056 | 0.809 ± 0.11 | 0.876 ± 0.081 | 0.84 ± 0.098 | 0.749 ± 0.13 | 0.383 ± 0.056 | 0.812 ± 0.044 | 0.877 ± 0.091 | 0.923 ± 0.12 | 0.883 ± 0.076 | 0.945 ± 0.085 | 0.659 ± 0.071 | 0.993 ± 0.015 | 0.986 ± 0.011 | 0.982 ± 0.011 | 0.987 ± 0.012 | 0.987 ± 0.016 | 0.707 ± 0.14 | 0.879 ± 0.031 | 0.922 ± 0.034 | 0.999 ± 0.044 | 1.03 ± 0.05 | 1.05 ± 0.035 | 1 ± 0.11 | 0.906 ± 0.026 | 0.905 ± 0.023 | 0.92 ± 0.023 | 0.94 ± 0.066 | 0.95 ± 0.096 | 0.726 ± 0.076 |
| Nc1ccc(C(=O)Nc2cccc(-c3nc(N4CCOCC4)c4oc5ncccc5c4n3)c2)cn1 | 1.02 ± 0.029 | 0.984 ± 0.013 | 0.972 ± 0.033 | 0.865 ± 0.022 | 0.668 ± 0.029 | 0.13 ± 0.053 | 1.12 ± 0.043 | 1.03 ± 0.053 | 1.03 ± 0.075 | 0.89 ± 0.072 | 0.769 ± 0.052 | 0.17 ± 0.047 | 1.06 ± 0.031 | 0.963 ± 0.034 | 0.856 ± 0.046 | 0.606 ± 0.041 | 0.37 ± 0.12 | -0.043 ± 0.35 | 1.015 ± 0.0057 | 0.989 ± 0.01 | 0.951 ± 0.022 | 0.824 ± 0.025 | 0.734 ± 0.051 | 0.301 ± 0.043 | 1.06 ± 0.025 | 0.999 ± 0.032 | 0.938 ± 0.029 | 0.746 ± 0.053 | 0.577 ± 0.07 | 0.0483 ± 0.094 | 1.04 ± 0.032 | 0.954 ± 0.058 | 0.869 ± 0.082 | 0.747 ± 0.094 | 0.657 ± 0.14 | 0.0924 ± 0.24 |
| O=C(NOCC1CC1)c1ccc(F)c(F)c1Nc1ccc(I)cc1Cl | 0.783 ± 0.081 | 0.686 ± 0.097 | 0.605 ± 0.12 | 0.528 ± 0.12 | 0.476 ± 0.094 | 0.267 ± 0.067 | 1.08 ± 0.054 | 1.05 ± 0.048 | 1.04 ± 0.023 | 1.02 ± 0.031 | 0.972 ± 0.077 | 0.611 ± 0.061 | 0.915 ± 0.15 | 0.81 ± 0.13 | 0.718 ± 0.059 | 0.646 ± 0.074 | 0.574 ± 0.034 | 0.344 ± 0.037 | 0.661 ± 0.016 | 0.547 ± 0.058 | 0.454 ± 0.059 | 0.371 ± 0.079 | 0.279 ± 0.068 | 0.165 ± 0.07 | 1.05 ± 0.03 | 1.032 ± 0.009 | 1.01 ± 0.043 | 0.9868 ± 0.0023 | 0.95 ± 0.018 | 0.289 ± 0.18 | 0.992 ± 0.058 | 0.8538 ± 0.0075 | 0.77 ± 0.023 | 0.63 ± 0.057 | 0.513 ± 0.05 | 0.181 ± 0.087 |
| O=C(NOC[C@H](O)CO)c1ccc(F)c(F)c1Nc1ccc(I)cc1F | 0.513 ± 0.088 | 0.402 ± 0.055 | 0.328 ± 0.023 | 0.247 ± 0.061 | 0.119 ± 0.078 | 0.0542 ± 0.11 | 0.953 ± 0.066 | 0.902 ± 0.057 | 0.913 ± 0.049 | 0.728 ± 0.027 | 0.445 ± 0.05 | 0.196 ± 0.14 | 0.608 ± 0.044 | 0.539 ± 0.02 | 0.503 ± 0.05 | 0.442 ± 0.039 | 0.254 ± 0.06 | 0.0358 ± 0.091 | 0.263 ± 0.072 | 0.184 ± 0.072 | 0.175 ± 0.077 | 0.134 ± 0.083 | 0.0915 ± 0.085 | 0.0555 ± 0.074 | 0.907 ± 0.095 | 0.864 ± 0.059 | 0.838 ± 0.1 | 0.708 ± 0.14 | 0.565 ± 0.086 | 0.439 ± 0.064 | 0.605 ± 0.043 | 0.413 ± 0.029 | 0.264 ± 0.033 | 0.0779 ± 0.1 | -0.0448 ± 0.12 | -0.0975 ± 0.13 |
| O=C1NC(=O)/C(=C/c2ccc3nccc(-c4ccncc4)c3c2)S1 | 0.948 ± 0.035 | 0.835 ± 0.057 | 0.647 ± 0.083 | 0.372 ± 0.044 | 0.0713 ± 0.13 | -0.118 ± 0.12 | 0.987 ± 0.084 | 0.81 ± 0.14 | 0.541 ± 0.15 | 0.0268 ± 0.1 | -0.291 ± 0.12 | -0.421 ± 0.12 | 0.983 ± 0.059 | 0.844 ± 0.057 | 0.581 ± 0.08 | 0.224 ± 0.075 | -0.0358 ± 0.081 | -0.203 ± 0.081 | 0.987 ± 0.039 | 0.887 ± 0.11 | 0.608 ± 0.17 | 0.143 ± 0.074 | -0.0425 ± 0.058 | -0.115 ± 0.059 | 0.934 ± 0.086 | 0.638 ± 0.15 | 0.192 ± 0.15 | -0.221 ± 0.082 | -0.352 ± 0.1 | -0.44 ± 0.1 | 1.03 ± 0.083 | 0.992 ± 0.052 | 0.912 ± 0.049 | 0.513 ± 0.18 | 0.131 ± 0.25 | -0.0544 ± 0.27 |
| c1ccc2c(-c3cnn4cc(-c5ccc(N6CCNCC6)cc5)cnc34)ccnc2c1 | 0.952 ± 0.025 | 0.911 ± 0.011 | 0.897 ± 0.027 | 0.862 ± 0.072 | 0.244 ± 0.58 | -0.361 ± 0.083 | 1.09 ± 0.11 | 1.04 ± 0.11 | 1.09 ± 0.056 | 0.987 ± 0.048 | -0.0902 ± 0.23 | -0.515 ± 0.11 | 1.08 ± 0.047 | 1 ± 0.075 | 1.01 ± 0.072 | 0.868 ± 0.044 | 0.258 ± 0.34 | -0.368 ± 0.019 | 0.999 ± 0.014 | 0.9817 ± 0.0032 | 0.9705 ± 0.0076 | 0.953 ± 0.032 | 0.661 ± 0.34 | -0.396 ± 0.11 | 0.994 ± 0.036 | 0.905 ± 0.039 | 0.915 ± 0.093 | 0.645 ± 0.21 | -0.08 ± 0.34 | -0.507 ± 0.082 | 0.996 ± 0.073 | 0.938 ± 0.084 | 0.925 ± 0.072 | 0.727 ± 0.056 | 0.0105 ± 0.45 | -0.355 ± 0.038 |
